Molecules are shown by their SMILES. Where only a bound is given, the exact number is not on record here.

The target of experiment [1] is recombinant human HDAC6 (Homo sapiens (Human), UniProt Q9UBN7). In words: Enzymatic screening, HDAC6 inhibition (fluorogenic FdL_G substrate). The class given is biochemical. The protocol: (§1) For each test compound, 100× concentrated DMSO solutions at 8 doses were prepared and then diluted in assay buffer (25 mM Tris-HCl, pH 8, 130 mM NaCl, 0.05% Tween-20, 10% Glycerol) to obtain 5× concentrated solutions in relation to the final concentrations (typical final concentration range—6.4-200000 nM or 0.18-50000 nM, final DMSO content—1%). Then 10 μL solution of each test compound concentration were placed on a 96-well plate in triplicate and 15 μL of 3.33× concentrated enzyme solution in the assay buffer containing 3.33× concentrated BSA (final BSA concentration—2 mg/mL for HDAC4, HDAC5 and HDAC9 or 1 mg/mL for other isoforms) and in the case of HDAC6-3.33× concentrated TCEP (final TCEP concentration—200 μM) were added to each well. After a period of preincubation (incubation times and temperatures vary for different isoforms and are shown in table 1) 25 μL of solution containing the substrate were added. As substrate, FLUOR DE LYS® deacetylase substrate (Enzo Life Sciences, cat: BML-KI104, FdL), FLUOR DE LYS®-Green substrate (Enzo Life Sciences, cat: BML-KI572, FdL_G) or Boc-Lys(Tfa)-AMC (Bachem, cat: 4060676.005, Tfal)—2× concentrated solution in assay buffer were used. Following a reaction period (reaction times and temperatures vary for different isoforms and are reported in Table 1), 50 μL of the development solution consisting of concentrate FLUOR DE LYS® developer I (Enzo Life Sciences, ca: BML-KI105), diluted 200 times in buffer (50 mM Tris-HCl, pH 8, 137 mM NaCl, 2.7 mM KCl, 1 mM MgCl2) plus 2 μM TSA was added and, after 25 minutes at room temperature in the dark, using the Victor 1420 Multilabel Counter Perkin Elmer Wallac instrument, the fluorescence reading was carried out.
recombinant human HDAC6, sequence (Q9UBN7 whole entry, canonical isoform): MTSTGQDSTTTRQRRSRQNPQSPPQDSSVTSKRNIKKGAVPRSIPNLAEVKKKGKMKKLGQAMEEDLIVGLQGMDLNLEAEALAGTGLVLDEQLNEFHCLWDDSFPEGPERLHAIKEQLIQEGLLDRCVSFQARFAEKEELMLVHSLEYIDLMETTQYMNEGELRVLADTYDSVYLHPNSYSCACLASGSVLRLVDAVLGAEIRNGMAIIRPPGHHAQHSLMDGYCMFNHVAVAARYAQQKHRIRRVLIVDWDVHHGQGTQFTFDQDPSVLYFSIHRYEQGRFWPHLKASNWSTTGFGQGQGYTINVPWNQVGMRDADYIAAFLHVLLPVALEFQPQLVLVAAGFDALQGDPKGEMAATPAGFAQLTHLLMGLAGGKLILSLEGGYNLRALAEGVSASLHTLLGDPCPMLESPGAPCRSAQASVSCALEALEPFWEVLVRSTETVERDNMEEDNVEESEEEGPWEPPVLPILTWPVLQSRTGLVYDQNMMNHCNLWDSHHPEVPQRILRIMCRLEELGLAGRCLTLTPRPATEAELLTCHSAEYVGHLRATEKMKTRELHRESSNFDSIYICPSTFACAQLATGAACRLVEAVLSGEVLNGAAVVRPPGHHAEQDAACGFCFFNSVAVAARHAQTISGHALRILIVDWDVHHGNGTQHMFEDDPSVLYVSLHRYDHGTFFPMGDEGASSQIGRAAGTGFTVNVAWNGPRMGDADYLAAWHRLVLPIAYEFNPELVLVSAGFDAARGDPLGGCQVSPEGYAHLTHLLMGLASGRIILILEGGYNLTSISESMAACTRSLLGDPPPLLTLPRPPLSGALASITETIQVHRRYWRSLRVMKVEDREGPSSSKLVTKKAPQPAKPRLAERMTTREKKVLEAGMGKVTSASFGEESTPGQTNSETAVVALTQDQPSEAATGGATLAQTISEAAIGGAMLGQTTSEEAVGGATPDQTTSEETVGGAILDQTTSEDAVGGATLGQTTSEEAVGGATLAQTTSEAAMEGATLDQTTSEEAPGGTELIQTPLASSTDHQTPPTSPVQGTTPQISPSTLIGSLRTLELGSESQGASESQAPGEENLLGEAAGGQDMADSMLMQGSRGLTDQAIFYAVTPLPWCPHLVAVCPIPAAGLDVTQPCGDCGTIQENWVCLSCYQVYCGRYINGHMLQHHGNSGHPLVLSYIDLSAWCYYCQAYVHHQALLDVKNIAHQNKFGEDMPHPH

The target of experiment [2] is recombinant human HDAC1 (Homo sapiens (Human), UniProt Q13547). In words: Enzymatic screening, HDAC1 inhibition (fluorogenic FdL_G substrate). The class given is biochemical. The protocol:
as §1

recombinant human HDAC1, sequence (Q13547 whole entry): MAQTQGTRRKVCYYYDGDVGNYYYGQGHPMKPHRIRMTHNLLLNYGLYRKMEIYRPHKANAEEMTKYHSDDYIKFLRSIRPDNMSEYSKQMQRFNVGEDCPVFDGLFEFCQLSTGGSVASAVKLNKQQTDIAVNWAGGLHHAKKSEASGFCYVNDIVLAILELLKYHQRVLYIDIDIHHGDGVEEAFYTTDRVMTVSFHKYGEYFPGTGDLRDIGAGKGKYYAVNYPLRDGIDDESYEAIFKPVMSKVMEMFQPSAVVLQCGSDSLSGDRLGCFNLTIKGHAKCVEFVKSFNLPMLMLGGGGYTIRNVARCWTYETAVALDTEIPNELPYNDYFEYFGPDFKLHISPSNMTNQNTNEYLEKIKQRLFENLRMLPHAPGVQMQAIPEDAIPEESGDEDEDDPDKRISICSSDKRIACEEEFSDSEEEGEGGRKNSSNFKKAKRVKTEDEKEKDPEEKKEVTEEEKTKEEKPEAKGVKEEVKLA

In general, IC50 refers to the concentration needed to halve the response being measured. `Nc1nc2cc(-c3cn(Cc4ccc(-c5nnc(C(F)F)o5)cn4)cn3)ccc2o1` [compound 308, 5-(1-((5-(5-(difluoromethyl)-1,3,4-oxadiazol-2-yl)pyridin-2-yl)methyl)-1H-imidazol-4-yl)benzo[d]oxazol-2-amine]: the values for the IC50 in experiment [1] and in experiment [2] were 15 nM and above 1e+06 nM, respectively.
Regarding `O=C1Nc2cc(-c3cn(Cc4ccc(-c5nnc(C(F)F)o5)cc4)nn3)ccc2NC12CCNCC2` [compound 277, 6′-(1-(4-(5-(difluoromethyl)-1,3,4-oxadiazol-2-yl)benzyl)-1H-1,2,3-triazol-4-yl)-1′,4′-dihydro-3′H-spiro[piperidine-4,2′-quinoxalin]-3′-one], the values for the half-maximal inhibitory concentration (IC50) in experiment [1] and in experiment [2] were 72 nM and 166000 nM, respectively.
For `CN(Cc1ccncc1)Cc1ccc(-c2nnn(Cc3c(F)cc(-c4nnc(C(F)F)o4)cc3F)n2)cc1` [compound 201, N-(4-(2-(4-(5-(difluoromethyl)-1,3,4-oxadiazol-2-yl)-2,6-difluorobenzyl)-2H-tetrazol-5-yl)benzyl)-N-methyl-1-(pyridin-4-yl)methanamine], in that order: 115 nM and above 200000 nM.
In the same order, the values of `[2H]C([2H])(c1ccc(-c2nnc(C(F)F)o2)c(F)c1F)n1cc(-c2ccc(N)nc2)nn1` [compound 385, 5-[1-[dideuterio-[4-[5-(difluoromethyl)-1,3,4-oxadiazol-2-yl]-2,3-difluorophenyl]methyl]triazol-4-yl]pyridin-2-amine] are 30 nM and 1e+06 nM.
In the same order, the values of `FC(F)c1nnc(-c2ccc(Cn3nnc(-c4ccc(N5CCNCC5)cc4)n3)cc2)o1` [compound 103, 2-(difluoromethyl)-5-(4-((5-(4-(piperazin-1-yl)phenyl)-2H-tetrazol-2-yl)methyl)phenyl)-1,3,4-oxadiazole] are 39 nM and above 200000 nM.
Turning to `O=C1Nc2cc(-c3cn(Cc4ccc(-c5nnc(C(F)F)o5)cn4)nn3)ccc2C12CCCC2` [compound 123, 6′-(1-((5-(5-(difluoromethyl)-1,3,4-oxadiazol-2-yl)pyridin-2-yl)methyl)-1H-1,2,3-triazol-4-yl)spiro[cyclopentane-1,3′-indolin]-2′-one], the 50% inhibitory concentration (IC50) is 46 nM in experiment [1] and above 200000 nM in experiment [2].
Take `Nc1ncnc2sc(-c3cn(Cc4ccc(-c5nnc(C(F)F)o5)cc4)nn3)cc12` [compound 178, 6-(1-(4-(5-(difluoromethyl)-1,3,4-oxadiazol-2-yl)benzyl)-1H-1,2,3-triazol-4-yl)thieno[2,3-d]pyrimidin-4-amine]: the half-inhibitory concentration (IC50) was 89 nM in experiment [1] and above 200000 nM in experiment [2].
For `NCc1ccc(-c2nc(Cc3ccc(-c4nnc(C(F)F)o4)cc3)no2)cc1` [compound 191, (4-(3-(4-(5-(difluoromethyl)-1,3,4-oxadiazol-2-yl)benzyl)-1,2,4-oxadiazol-5-yl)phenyl)methanamine], in that order: 102 nM and above 200000 nM.
For `CS(=O)(=O)NCC[C@H](c1ccc(-c2nnc(C(F)F)o2)cc1)n1cc(-c2ccc(N)nc2)nn1` [compound 311, N-[(3R)-3-[4-(6-aminopyridin-3-yl)triazol-1-yl]-3-[4-[5-(difluoromethyl)-1,3,4-oxadiazol-2-yl]phenyl]propyl]methanesulfonamide], in that order: 25 nM and above 1e+06 nM.
In the same order, the values of `Nc1ccc(-c2cn(C(COc3ccccc3)c3ccc(-c4nnc(C(F)F)o4)cc3)nn2)cn1` (stereo not drawn) [compound 236, 5-(1-(1-(4-(5-(difluoromethyl)-1,3,4-oxadiazol-2-yl)phenyl)-2-phenoxyethyl)-1H-1,2,3-triazol-4-yl)pyridin-2-amine] are 206 nM and above 200000 nM.
On to `NC(=O)c1cccc(-c2noc(Cc3ccc(-c4nnc(C(F)F)o4)cc3)n2)c1` [Compd. 226, 3-(5-(4-(5-(difluoromethyl)-1,3,4-oxadiazol-2-yl)benzyl)-1,2,4-oxadiazol-3-yl)benzamide], for which the IC50 in experiment [1] was 169 nM; in experiment [2] it was above 200000 nM.
In the same order, the values of `Cn1c(N)nc2cc(-c3cn(Cc4ccc(-c5nnc(C(F)F)o5)cc4F)nn3)ccc21` [compound 378, 5-[1-[[4-[5-(difluoromethyl)-1,3,4-oxadiazol-2-yl]-2-fluorophenyl]methyl]triazol-4-yl]-1-methylbenzimidazol-2-amine] are 17 nM and 199000 nM.
For `Cc1nc(F)ccc1-c1cn(Cc2ccc(-c3nnc(C(F)F)o3)cc2)nn1` [compound 241, 2-(difluoromethyl)-5-(4-((4-(6-fluoro-2-methylpyridin-3-yl)-1H-1,2,3-triazol-1-yl)methyl)phenyl)-1,3,4-oxadiazole], in that order: 216 nM and above 200000 nM.
With `O=C1NCc2cc(-c3nnn(Cc4ccc(-c5nnc(C(F)F)o5)cc4)n3)ccc21` [compound 167, 5-(2-(4-(5-(difluoromethyl)-1,3,4-oxadiazol-2-yl)benzyl)-2H-tetrazol-5-yl)isoindolin-1-one], the IC50 in experiment [1] was 79 nM; in experiment [2] it was above 200000 nM.
For `CNc1ccc2cc(-c3nnn(Cc4c(F)cc(-c5nnc(C(F)F)o5)cc4F)n3)ccc2n1` [compound 388, 6-(2-(4-(5-(difluoromethyl)-1,3,4-oxadiazol-2-yl)-2,6-difluorobenzyl)-2H-tetrazol-5-yl)-N-methylquinolin-2-amine], in that order: 125 nM and 1e+06 nM.
Consider `CN(Cc1ccncc1)Cc1ccc(-c2cn(Cc3ccc(-c4nnc(C(F)F)o4)cc3)nn2)cc1` [compound 282, N-(4-(1-(4-(5-(difluoromethyl)-1,3,4-oxadiazol-2-yl)benzyl)-1H-1,2,3-triazol-4-yl)benzyl)-N-methyl-1-(pyridin-4-yl)methanamine], for which the IC50 in experiment [1] was 282 nM; in experiment [2], above 200000 nM.
For `Cn1c(N)nc2cc(-c3cn(Cc4ccc(-c5nnc(C(F)F)o5)c(F)c4F)nn3)ccc21` [compound 345, 5-[1-[[4-[5-(difluoromethyl)-1,3,4-oxadiazol-2-yl]-2,3-difluorophenyl]methyl]triazol-4-yl]-1-methylbenzimidazol-2-amine], the half-maximal inhibitory concentration (IC50) worked out at 24 nM in experiment [1] and 168000 nM in experiment [2].
In the case of `CC(C)(C)OC(=O)N1CCC2(C1)C(=O)Nc1ccc(-c3cn(Cc4ccc(-c5nnc(C(F)F)o5)cc4)nn3)cc12` (stereo not drawn) [compound 177, tert-butyl 5-(1-(4-(5-(difluoromethyl)-1,3,4-oxadiazol-2-yl)benzyl)-1H-1,2,3-triazol-4-yl)-2-oxospiro[indoline-3,3′-pyrrolidine]-1′-carboxylate], the IC50 in experiment [1] is 89 nM; in experiment [2], above 200000 nM.
On to `O=C(NCc1ccco1)c1cccc(-c2nnn(Cc3ccc(-c4nnc(C(F)F)o4)cc3)n2)c1` [compound 96, 3-(2-(4-(5-(difluoromethyl)-1,3,4-oxadiazol-2-yl)benzyl)-2H-tetrazol-5-yl)-N-(furan-2-ylmethyl)benzamide], for which the concentration for half-maximal inhibition (IC50) in experiment [1] is 37 nM; in experiment [2] it was above 200000 nM.
Regarding `Nc1ccc(-c2noc(Cc3ccc(-c4nnc(C(F)F)o4)cc3)n2)cc1` [compound 375, 4-[5-[[4-[5-(difluoromethyl)-1,3,4-oxadiazol-2-yl]phenyl]methyl]-1,2,4-oxadiazol-3-yl]aniline], the half-inhibitory concentration (IC50) is 88 nM in experiment [1] and above 1e+06 nM in experiment [2].
In the same order, the values of `Fc1c(Cn2cnc(-c3ccc(NC4=NCCN4)cc3)c2)ccc(-c2nnc(C(F)F)o2)c1F` [compound 359, N-[4-[1-[[4-[5-(difluoromethyl)-1,3,4-oxadiazol-2-yl]-2,3-difluorophenyl]methyl]imidazol-4-yl]phenyl]-4,5-dihydro-1H-imidazol-2-amine] are 11 nM and above 1e+06 nM.
In the case of `Nc1ncnc2cc(-c3cn(Cc4ccc(-c5nnc(C(F)F)o5)cc4F)nn3)ccc12` [compound 387, 7-[1-({4-[5-(difluoromethyl)-1,3,4-oxadiazol-2-yl]-2-fluorophenyl}methyl)-1H-1,2,3-triazol-4-yl]quinazolin-4-amine], the IC50 in experiment [1] worked out at 12 nM; in experiment [2], 1e+06 nM.
In the same order, the values of `Nc1ccc(-c2cn(Cc3ncc(-c4nnc(C(F)F)o4)cn3)nn2)cn1` [compd. 125, 5-(1-((5-(5-(difluoromethyl)-1,3,4-oxadiazol-2-yl)pyrimidin-2-yl)methyl)-1H-1,2,3-triazol-4-yl)pyridin-2-amine] are 48 nM and above 200000 nM.
For `CNc1ccc2cc(-c3nnn(Cc4ccc(-c5nnc(C(F)F)o5)c(F)c4F)n3)ccc2n1` [compound 407, 6-(2-(4-(5-(difluoromethyl)-1,3,4-oxadiazol-2-yl)-2,3-difluorobenzyl)-2H-tetrazol-5-yl)-N-methylquinolin-2-amine], in that order: 136 nM and 1e+06 nM.
